Assay results from patent publication US20250236616A1, “IMMUNOMODULATING AZALIDES” (Zoetis Services LLC, priority 2021, published 2025).

Columns and labels:
Format in all cases: cell-based
TNF-α = assay: Whole bovine blood assay, LPS-induced TNF-α; details: fresh whole bovine blood, LPS stimulant; top drug concentration 250 μM
Method in brief: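 Fresh heparinized bovine whole blood was preincubated with compound 4 h at 37 °C, then stimulated with LPS (final 1 μg/mL) for 18 h at 37 °C. Plasma TNF-α was quantified by MSD U-Plex chemiluminescent immunoassay, normalized to total protein (BCA), and IC50 taken for LPS-induced TNF-α inhibition.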

IL-6 = assay: Whole bovine blood assay, LPS-induced IL-6; details: fresh whole bovine blood, LPS stimulant; top drug concentration 250 μM
IL-1β = assay: Whole bovine blood assay, LPS-induced IL-1β (inhibition / overstimulation); details: drug concentration giving overstimulation (OS) of LPS-induced IL-1β, top concentration 250 μM
Method in brief: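 IL-1β was quantified by MSD U-Plex chemiluminescence in plasma and normalized to BCA total protein. Bovine blood was pretreated 4 h at 37 °C with compound dilutions before 18 h LPS challenge (1 μg/mL final). Rising IL-1β at high concentrations was recorded as overstimulation.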

Row | IC50 (TNF-α) [µM] | IC50 (IL-6) [µM] | SMILES | minimal effective concentration (IL-1β) [µM]
1 | 5 | 9 | CC[C@H]1OC(=O)[C@H](C)[C@@H](O[C@H]2C[C@@](C)(OC)[C@](O)(CN3CCCC3)[C@H](C)O2)[C@H](C)[C@@H](O[C@@H]2O[C@H](C)C[C@H](N(C)S(=O)(=O)c3ccc(Cl)cc3)[C@H]2O)[C@](C)(O)C[C@@H](C)CN[C@H](C)[C@@H](O)[C@]1(C)O [Example C-3] | 16
2 | 6 | 9 | CC[C@H]1OC(=O)[C@H](C)[C@@H](O[C@H]2C[C@@](C)(OC)[C@](O)(CN3CCCCC3)[C@H](C)O2)[C@H](C)[C@@H](O[C@@H]2O[C@H](C)C[C@H](N(C)S(=O)(=O)c3ccccc3)[C@H]2Oc2ccnc(F)c2)[C@](C)(O)C[C@@H](C)CN[C@H](C)[C@@H](O)[C@]1(C)O [Example C-55] | 6
3 | 6 | 9 | CC[C@H]1OC(=O)[C@H](C)[C@@H](O[C@H]2C[C@@](C)(OC)[C@](O)(CN3CCCCC3)[C@H](C)O2)[C@H](C)[C@@H](O[C@@H]2O[C@H](C)C[C@H](N(C)S(=O)(=O)c3nccn3C)[C@H]2Oc2ccnc(F)c2)[C@](C)(O)C[C@@H](C)CN[C@H](C)[C@@H](O)[C@]1(C)O [Example C-49] | 6
4 | 5 | 27 | CCCNC[C@]1(O)[C@H](C)O[C@@H](O[C@H]2[C@H](C)[C@@H](O[C@@H]3O[C@H](C)C[C@H]4[C@H]3OS(=O)(=O)N4C)[C@](C)(O)C[C@@H](C)CN[C@H](C)[C@@H](O)[C@](C)(O)[C@@H](CC)OC(=O)[C@@H]2C)C[C@@]1(C)OC [Example D-1] | 16
5 | 6 | 32 | CC[C@H]1OC(=O)[C@H](C)[C@@H](O[C@H]2C[C@@](C)(OC)[C@](O)(CN3CCSCC3)[C@H](C)O2)[C@H](C)[C@@H](O[C@@H]2O[C@H](C)C[C@H](N(C)S(=O)(=O)c3ccc(Cl)cc3)[C@H]2O)[C@](C)(O)C[C@@H](C)CN[C@H](C)[C@@H](O)[C@]1(C)O [Example C-6] | 16
6 | 13 | 140 | CC[C@H]1OC(=O)[C@H](C)[C@@H](O[C@H]2C[C@@](C)(OC)[C@](O)(CN3CCN(CC)CC3)[C@H](C)O2)[C@H](C)[C@@H](O[C@@H]2O[C@H](C)C[C@H](N(C)S(=O)(=O)Nc3ccc(C(F)(F)F)cc3)[C@H]2O)[C@](C)(O)C[C@@H](C)CN[C@H](C)[C@@H](O)[C@]1(C)O [Example C-12] | 100
7 | 4 | 4 | CC[C@H]1OC(=O)[C@H](C)[C@@H](O[C@H]2C[C@@](C)(OC)[C@](O)(CN3CCCCC3)[C@H](C)O2)[C@H](C)[C@@H](O[C@@H]2O[C@H](C)C[C@H](N(CC(C)C)S(=O)(=O)Nc3ccc(C(F)(F)F)cc3)[C@H]2O)[C@](C)(O)C[C@@H](C)CN[C@H](C)[C@@H](O)[C@]1(C)O [Example C-44] | 6

Second part, the compound before the results:

Row | SMILES | IC50 (TNF-α) [µM] | IC50 (IL-6) [µM] | minimal effective concentration (IL-1β) [µM]
8 | CCCNC[C@]1(O)[C@H](C)O[C@@H](O[C@H]2[C@H](C)[C@@H](O[C@@H]3O[C@H](C)C[C@H](N(C)S(=O)(=O)c4ncn(C)c4Cl)[C@H]3Oc3ccc(OC)cc3)[C@](C)(O)C[C@@H](C)CN[C@H](C)[C@@H](O)[C@](C)(O)[C@@H](CC)OC(=O)[C@@H]2C)C[C@@]1(C)OC [Example B-111] | > 250 | 141 | 17
9 | CC[C@H]1OC(=O)[C@H](C)[C@@H](O[C@H]2C[C@@](C)(OC)[C@](O)(CNC)[C@H](C)O2)[C@H](C)[C@@H](O[C@@H]2O[C@H](C)C[C@H](N(C)S(=O)(=O)c3ccc(Cl)cc3)[C@H]2O)[C@](C)(O)C[C@@H](C)CN[C@H](C)[C@@H](O)[C@]1(C)O [Example B-38] | 32 | 22 | 5
10 | CC[C@H]1OC(=O)[C@H](C)[C@@H](O[C@H]2C[C@@](C)(OC)[C@](O)(CNC)[C@H](C)O2)[C@H](C)[C@@H](O[C@@H]2O[C@H](C)C[C@H](N(C)S(=O)(=O)Nc3ccc(C(F)(F)F)cc3)[C@H]2O)[C@](C)(O)C[C@@H](C)CN[C@H](C)[C@@H](O)[C@]1(C)O [Example B-76] | > 250 | > 250 | >250
11 | CCCNC[C@]1(O)[C@H](C)O[C@@H](O[C@H]2[C@H](C)[C@@H](O[C@@H]3O[C@H](C)C[C@H](N(Cc4ccccc4)S(=O)(=O)c4ccccc4)[C@H]3O)[C@](C)(O)C[C@@H](C)CN[C@H](C)[C@@H](O)[C@](C)(O)[C@@H](CC)OC(=O)[C@@H]2C)C[C@@]1(C)OC [Example B-145] | 8 | 6 | 2
12 | CC[C@H]1OC(=O)[C@H](C)[C@@H](O)[C@H](C)[C@@H](O[C@@H]2O[C@H](C)C[C@H](N(C)S(=O)(=O)c3ccccc3)[C@H]2Oc2ccc(F)cc2)[C@](C)(O)C[C@@H](C)CN[C@H](C)[C@@H](O)[C@]1(C)O [Example A-23] | 36 | 22 | 16
13 | CC[C@H]1OC(=O)[C@H](C)[C@@H](O)[C@H](C)[C@@H](O[C@@H]2O[C@H](C)C[C@H](N(C)S(=O)(=O)c3nccn3C)[C@H]2Oc2ccc(F)c(C(F)(F)F)c2)[C@](C)(O)C[C@@H](C)CN[C@H](C)[C@@H](O)[C@]1(C)O [Example A-34] | 205 | 59 | 40
14 | CCCNC[C@]1(O)[C@H](C)O[C@@H](O[C@H]2[C@H](C)[C@@H](O[C@@H]3O[C@H](C)C[C@H](N(C)S(=O)(=O)c4ccccc4)[C@H]3Oc3cccc([S+](C)[O-])c3)[C@](C)(O)C[C@@H](C)CN[C@H](C)[C@@H](O)[C@](C)(O)[C@@H](CC)OC(=O)[C@@H]2C)C[C@@]1(C)OC (stereo partly drawn) [Example B-138] | 26 | 70 | 40
15 | CC[C@H]1OC(=O)[C@H](C)[C@@H](O)[C@H](C)[C@@H](O[C@@H]2O[C@H](C)C[C@H](N(C)S(=O)(=O)c3cnc4n3CCC4)[C@H]2Oc2ccc(F)cc2)[C@](C)(O)C[C@@H](C)CN[C@H](C)[C@@H](O)[C@]1(C)O [Example A-28] | > 250 | 120 | 81
16 | CCCNC[C@]1(O)[C@H](C)O[C@@H](O[C@H]2[C@H](C)[C@@H](O[C@@H]3O[C@H](C)C[C@H](N(C)S(=O)(=O)c4ccc(Br)cc4)[C@H]3Oc3ccc(OC)cc3)[C@](C)(O)C[C@@H](C)CN[C@H](C)[C@@H](O)[C@](C)(O)[C@@H](CC)OC(=O)[C@@H]2C)C[C@@]1(C)OC [Example B-104] | 15 | 7 | 3
17 | CCCNC[C@]1(O)[C@H](C)O[C@@H](O[C@H]2[C@H](C)[C@@H](O[C@@H]3O[C@H](C)C[C@H](N(C)S(=O)(=O)NC)[C@H]3O)[C@](C)(O)C[C@@H](C)CN[C@H](C)[C@@H](O)[C@](C)(O)[C@@H](CC)OC(=O)[C@@H]2C)C[C@@]1(C)OC [Example B-55] | > 250 | > 32 | 26
18 | CCCNC[C@]1(O)[C@H](C)O[C@@H](O[C@H]2[C@H](C)[C@@H](O[C@@H]3O[C@H](C)C[C@H](N(C)S(=O)(=O)N4CCCCC4)[C@H]3O)[C@](C)(O)C[C@@H](C)CN[C@H](C)[C@@H](O)[C@](C)(O)[C@@H](CC)OC(=O)[C@@H]2C)C[C@@]1(C)OC [Example B-47] | 13 | 24 | 40
19 | CCCNC[C@]1(O)[C@H](C)O[C@@H](O[C@H]2[C@H](C)[C@@H](O[C@@H]3O[C@H](C)C[C@H](N(C)S(=O)(=O)N(C)CC(F)(F)F)[C@H]3O)[C@](C)(O)C[C@@H](C)CN[C@H](C)[C@@H](O)[C@](C)(O)[C@@H](CC)OC(=O)[C@@H]2C)C[C@@]1(C)OC [Example B-112] | 39 | 45 | 40
20 | CC[C@H]1OC(=O)[C@H](C)[C@@H](O)[C@H](C)[C@@H](O[C@@H]2O[C@H](C)C[C@H](N(C)S(=O)(=O)c3cccs3)[C@H]2Oc2ccc(F)cc2)[C@](C)(O)C[C@@H](C)CN[C@H](C)[C@@H](O)[C@]1(C)O [Example A-22] | 30 | 22 | 16
21 | CC[C@H]1OC(=O)[C@H](C)[C@@H](O[C@H]2C[C@@](C)(OC)[C@](O)(CNCCN(C)C)[C@H](C)O2)[C@H](C)[C@@H](O[C@@H]2O[C@H](C)C[C@H](N(C)S(=O)(=O)Nc3ccc(C(F)(F)F)cc3)[C@H]2O)[C@](C)(O)C[C@@H](C)CN[C@H](C)[C@@H](O)[C@]1(C)O [Example B-82] | 71 | > 250 | >250
22 | CC[C@H]1OC(=O)[C@H](C)[C@@H](O)[C@H](C)[C@@H](O[C@@H]2O[C@H](C)C[C@H](N(C)S(=O)(=O)c3ccc(F)cc3)[C@H]2Oc2ccc(F)cc2)[C@](C)(O)C[C@@H](C)CN[C@H](C)[C@@H](O)[C@]1(C)O [Example A-25] | 75 | 28 | 16
23 | CC[C@H]1OC(=O)[C@H](C)[C@@H](O[C@H]2C[C@@](C)(OC)[C@](O)(CNCCN(C)C)[C@H](C)O2)[C@H](C)[C@@H](O[C@@H]2O[C@H](C)C[C@H](N(C)S(=O)(=O)c3ccc(Cl)cc3)[C@H]2O)[C@](C)(O)C[C@@H](C)CN[C@H](C)[C@@H](O)[C@]1(C)O [Example B-35] | > 250 | 54 | 16
24 | CCCNC[C@]1(O)[C@H](C)O[C@@H](O[C@H]2[C@H](C)[C@@H](O[C@@H]3O[C@H](C)C[C@H](N(C)S(=O)(=O)Nc4ccc(F)cc4)[C@H]3O)[C@](C)(O)C[C@@H](C)CN[C@H](C)[C@@H](O)[C@](C)(O)[C@@H](CC)OC(=O)[C@@H]2C)C[C@@]1(C)OC [Example B-53] | 85 | 26 | 16
